Where two headings read alike, the source gives them in different places.
Target: HIV-1 fusion (gp160 induced cell-cell fusion; HeLa P4 cell line expressing CCR5 and CD4 / CHO-Tat10 cell line) (Homo sapiens, UniProt P51681)
Assay: gp160 induced cell-cell fusion assay
Assay type: cell-based
Details: HeLa P4 / CHO-Tat10 cells
Description: Biol., 60, 147-52 (1996); and/or by using the intracellular calcium mobilisation assays as described by the same authors, and/or inhibiting cell fusion following procedures disclosed in Bradley et al., J Biomol Screen 9, 516-24 (2004).
The gp160 induced cell-cell fusion assay uses a HeLa P4 cell line and a CHO-Tat10 cell line.
The HeLa P4 cell line expresses CCR5 and CD4 and has been transfected with HIV-1 LTR-β-Galactosidase. The media for this cell line is Dulbecco modified eagle's medium (D-MEM) (without L-glutamine) containing 10% foetal calf serum (FCS), 2 mM L-glutamine, penicillin/streptomycin (Pen/Strep; 100 U/mL penicillin+[…] streptomycin), and 1 μg/ml puromycin.
The CHO cell line is a Tat (transcriptional trans activator)-expressing clone from a CHO JRR17.1 cell line that has been transfected with pTat puro plasmid. The media for this cell line is rich medium for mammalian cell culture originally developed at Roswell Park Memorial Institute RPMI1640 (without L-glutamine) containing 10% FCS, 2 mM L-glutamine, 0.5 mg/ml Hygromycin B and 12 µg/ml puromycin. The CHO JRR17.1 line expresses gp160 (JRFL) and is a clone that has been selected for its ability to fuse with a CCR5/CD4 expressing cell line.
Upon cell fusion, Tat present in the CHO cell is able to transactivate the HIV-1 long terminal repeat (LTR) present in the HeLa cell leading to the expression of the β-Galactosidase enzyme. This expression is then measured using a Fluor Ace™ β-Galactosidase reporter assay kit (Bio-Rad cat no. 170-3150). This kit is a quantitative fluorescent assay that determines the level of expression of β-galactosidase using 4-methylumbelliferyl-galactopyranoside (MUG) as substrate. β-Galactosidase hydrolyses the fluorogenic substrate resulting in release of the fluorescent molecule 4-methylumbelliferone (4MU). Fluorescence of 4-methylumbelliferone is then measured on a fluorometer using an excitation wavelength of 360 nm and emission wavelength of 460 nm.
Compounds that inhibit fusion will give rise to a reduced signal and, following solubilisation in an appropriate solvent and dilution in culture medium, a dose-response curve for each compound can be used to calculate IC50 values.

HIV-1 fusion (gp160 induced cell-cell fusion; HeLa P4 cell line expressing CCR5 and CD4 / CHO-Tat10 cell line), sequence (P51681 whole entry, the tested form may be a part): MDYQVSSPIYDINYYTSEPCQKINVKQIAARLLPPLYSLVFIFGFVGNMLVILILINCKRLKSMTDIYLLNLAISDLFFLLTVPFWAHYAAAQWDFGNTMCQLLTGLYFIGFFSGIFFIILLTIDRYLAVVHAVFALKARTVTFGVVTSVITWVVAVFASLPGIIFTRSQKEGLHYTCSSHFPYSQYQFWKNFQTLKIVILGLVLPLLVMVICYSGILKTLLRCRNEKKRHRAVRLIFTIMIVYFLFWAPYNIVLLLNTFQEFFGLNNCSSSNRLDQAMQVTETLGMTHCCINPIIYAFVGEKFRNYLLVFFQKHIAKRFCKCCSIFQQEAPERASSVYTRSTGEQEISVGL

SMILES	IC50 (read-out: IC50)	IC50 (IC50 (nM))
Cc1nc2c(n1C1CCN(C(C)C[C@H](NC(=O)C3CC(F)(F)C3)c3ccccc3)CC1)CN(C(=O)C(C)C)CC2 (stereo partly drawn) [Example 25, 3,3-Difluoro-N-{(1S)-3-[4-(5-isobutyryl-2-methyl-4,5,6,7-tetrahydro-3H-imidazo[4,5-c]pyridin-3-yl)piperidin-1-yl]-1-phenylbutyl}cyclobutanecarboxamide]	0.4 nM	
CC(=O)N1CCc2nc(C)n(C3CCN(C(C)C[C@H](NC(=O)C(C)C)c4cccc(F)c4)CC3)c2C1 (stereo partly drawn) [Example 58, N-[(1S)-3-[4-(5-acetyl-2-methyl-4,5,6,7-tetrahydro-3H-imidazo[4,5-c]pyridin-3-yl)piperidin-1-yl]-1-(3-fluorophenyl)butyl]-2-methylpropanamide]		0.5 nM
CCC(=O)N[C@@H](CC(C)N1CCC(n2c(C)nc3c2CN(C(C)=O)CC3)CC1)c1cccc(F)c1 (stereo partly drawn) [Example 62, N-[(1S)-3-[4-(5-acetyl-2-methyl-4,5,6,7-tetrahydro-3H-imidazo[4,5-c]pyridin-3-yl)piperidin-1-yl]-1-(3-fluorophenyl)butyl]propanamide]		1 nM
CC(=O)N[C@@H](CC(C)N1CCC(n2c(C)nc3c2CN(C(=O)C(C)C)CC3)CC1)c1cccc(F)c1 (some centres unmarked) [Example 64]	2 nM	
Cc1cc(C(C)C)n(C2CCN(C(C)C[C@H](NC(=O)C3CCC(F)(F)CC3)c3ccccc3)CC2)n1 (single isomer, unassigned) [Example 117]	1170 nM	
CCOC(=O)N1CCc2c(nc(C)n2C2CCN(C(C)C[C@H](NC(=O)CC)c3cccc(F)c3)CC2)C1 (single isomer, unassigned) [Example 98]	19.1 nM	
COC(=O)N[C@@H](CC(C)N1CCC(n2c(C)nc3c2CN(C(=O)OC)CC3)CC1)c1ccccc1 (single isomer, unassigned) [Example 13A]	37.1 nM	
CC(=O)N1CCc2c(nc(C)n2C2CCN(C(C)C[C@H](NC(=O)C(C)C)c3cccc(F)c3)CC2)C1 (stereo partly drawn) [Example 94, N-[(1S)-3-[4-(5-acetyl-2-methyl-4,5,6,7-tetrahydro-1H-imidazo[4,5-c]pyridin-1-yl)piperidin-1-yl]-1-(3-fluorophenyl)butyl]-2-methylpropanamide]		0.2 nM
CC(C)c1nccn1C1CCN(C(C)C[C@H](NC(=O)C2CCC(F)(F)CC2)c2ccccc2)CC1 (stereo partly drawn) [Example 111, 4,4-Difluoro-N-{(1S)-3-[4-(2-isopropyl-1H-imidazol-1-yl)piperidin-1-yl]-1-phenylbutyl}cyclohexanecarboxamide]	0.2 nM	
CC(=O)N1CCc2c(nc(C)n2C2CCN(C(C)C[C@H](NC(=O)C(C)C)c3cccc(F)c3)CC2)C1 (single isomer, unassigned) [Example 93]	12.9 nM	
CC(=O)N1CCc2nc(C)n(C3CCN(C(C)C[C@H](NC(=O)CC(C)C)c4cccc(F)c4)CC3)c2C1 (single isomer, unassigned) [Example 50]	0.4 nM	
Cc1nc2c(n1C1CCN(C(C)C[C@H](NC(=O)C(C)C)c3ccccc3)CC1)CN(C(=O)C(C)C)CC2 (single isomer, unassigned) [Example 29]	29.9 nM	
CCC(=O)N[C@@H](CC(C)N1CCC(n2c(C)nc3c2CCN(C(=O)OC)C3)CC1)c1cccc(F)c1 (some centres unmarked) [Example 91]	102 nM	
CCC(=O)N[C@@H](CC(C)N1CCC(n2c(C)nc3c2CCN(C(=O)OC)C3)CC1)c1ccccc1 (stereo partly drawn) [Example 92, methyl 2-methyl-1-{1-[(3S)-1-methyl-3-phenyl-3-(propionylamino)propyl]piperidin-4-yl}-1,4,6,7-tetrahydro-5H-imidazo[4,5-c]pyridine-5-carboxylate]		0.4 nM
Cc1noc(C2CCN(C(C)C[C@H](NC(=O)OC(C)(C)C)c3ccccc3)CC2)n1 (single isomer, unassigned) [Example 106A]	362 nM	
COC(=O)N1CCc2nc(C)n(C3CCN(C(C)CC(NC(=O)C4CCS(=O)(=O)CC4)c4ccccc4)CC3)c2C1 (mixture of isomers) [Example 8]	6 nM	
Cc1cc(C(C)C)n(C2CCN(C(C)C[C@H](NC(=O)C3CCC(F)(F)CC3)c3ccccc3)CC2)n1 (single isomer, unassigned) [Example 116]	50.5 nM	
Cc1nccn1C1CCN(C(C)C[C@H](NC(=O)C2CCC(F)(F)CC2)c2ccccc2)CC1 (stereo partly drawn) [Example 112, 4,4-Difluoro-N-{(1S)-3-[4-(2-methyl-1H-imidazol-1-yl)piperidin-1-yl]-1-phenylbutyl}cyclohexanecarboxamide]	1 nM	
COC(=O)N1CCc2nc(C)n(C3CCN(C(C)CC(NC(=O)OC(C)C)c4ccccc4)CC3)c2C1 (mixture of isomers) [Example 14]	17.2 nM	
CC(=O)N1CCc2nc(C)n(C3CCN(C(C)C[C@H](NC(=O)C4CCC(F)(F)CC4)c4ccccc4)CC3)c2C1 (some centres unmarked) [Example 54]	0.4 nM	
COC(=O)N1CCc2c(nc(C)n2C2CCN(C(C)C[C@H](NC(C)=O)c3ccccc3)CC2)C1 (single isomer, unassigned) [Example 72]	2.4 nM	

SMILES	IC50 (read-out: IC50)	IC50 (IC50 (nM))
Cc1nc2c(n1C1CCN(C(C)C[C@H](NC(=O)C3CCC3(F)F)c3ccccc3)CC1)CN(C(=O)C(C)C)CC2 (some centres unmarked) [Example 26]	38.5 nM	
CC(C[C@H](NC(=O)C1CCC(F)(F)CC1)c1ccccc1)N1CCC(c2nnnn2C(C)C)CC1 (single isomer, unassigned) [Example 125]	2.2 nM	
CC(CC(NC(=O)C1CCC(F)(F)CC1)c1ccccc1)N1CCC(n2ccnc2)CC1 (mixture of isomers) [Example 127]	4.7 nM	
CC(=O)N1CCc2nc(C)n(C3CCN(C(C)C[C@H](NC(=O)C4CCC4)c4cccc(F)c4)CC3)c2C1 (some centres unmarked) [Example 57]	0.2 nM	
COC(=O)N1CCc2c(nc(C)n2C2CCN(C(C)C[C@H](NC(C)=O)c3ccccc3)CC2)C1 (single isomer, unassigned) [Example 73]	9.1 nM	
CC(=O)N1CCc2c(nc(C)n2C2CCN(C(C)C[C@H](NC(=O)C3CC3)c3cccc(F)c3)CC2)C1 (some centres unmarked) [Example 103]	0.2 nM	
CCCC(=O)N[C@@H](CC(C)N1CCC(n2c(C)nc3c2CN(C(C)=O)CC3)CC1)c1ccccc1 (stereo partly drawn) [Example 56, N-{(1S)-3-[4-(5-acetyl-2-methyl-4,5,6,7-tetrahydro-3H-imidazo[4,5-c]pyridin-3-yl)piperidin-1-yl]-1-phenylbutyl}butanamide]		1.2 nM
CC(=O)N[C@@H](CC(C)N1CCC(n2c(C)nc3c2CN(C(=O)C(C)C)CC3)CC1)c1ccccc1 (single isomer, unassigned) [Example 31]	191 nM	
CCC(=O)N[C@@H](CC(C)N1CCC(n2c(C)nc3c2CN(C(=O)C(C)C)CC3)CC1)c1cccc(F)c1 (some centres unmarked) [Example 65]	0.6 nM	
COC(=O)N1CCc2nc(C)n(C3CCN(C(C)CC(NC(=O)C4CCC(F)(F)CC4)c4ccccc4)CC3)c2C1 (mixture of isomers) [Example 6]	1 nM	
COC(=O)N1CCc2c(nc(C)n2C2CCN(C(C)CC(NC(=O)C3CC3)c3cccc(F)c3)CC2)C1 (mixture of isomers) [Example 78]	1.8 nM	
CC(=O)N1CCc2nc(C)n(C3CCN(C(C)C[C@H](NC(=O)C4CCC4(F)F)c4ccccc4)CC3)c2C1 (some centres unmarked) [Example 53]	0.5 nM	
CCCC(=O)N[C@@H](CC(C)N1CCC(n2c(C)nc3c2CN(C(=O)OC)CC3)CC1)c1cccc(F)c1 (stereo partly drawn) [Example 69, Methyl 3-{1-[(3S)-3-(butyrylamino)-3-(3-fluorophenyl)-1-methylpropyl]piperidin-4-yl}-2-methyl-3,4,6,7-tetrahydro-5H-imidazo[4,5-c]pyridine-5-carboxylate]	0.2 nM	
CC(=O)N1CCc2nc(C)n(C3CCN(C(C)C[C@H](NC(=O)C4(C)CC4)c4ccccc4)CC3)c2C1 (some centres unmarked) [Example 55]	0.3 nM	
CC(=O)N1CCc2nc(C)n(C3CCN(C(C)C[C@H](NC(=O)C4CC4)c4cccc(F)c4)CC3)c2C1 (some centres unmarked) [Example 60]	0.6 nM	
CCC(=O)N[C@@H](CC(C)N1CCC(n2c(C)nc3c2CN(C(=O)OC)CC3)CC1)c1cccc(F)c1 (some centres unmarked) [Example 67]	0.2 nM	
COC(=O)N1CCc2c(nc(C)n2C2CCN(C(C)CC(NC(=O)C(C)C)c3cccc(F)c3)CC2)C1 (mixture of isomers) [Example 77]	0.6 nM	
CC(=O)N1CCc2nc(C)n(C3CCN(C(C)C[C@H](NC(=O)OC(C)C)c4cccc(F)c4)CC3)c2C1 (some centres unmarked) [Example 61]	1.6 nM	
CCOC(=O)N1CCc2c(nc(C)n2C2CCN(C(C)C[C@H](NC(=O)C3CC3)c3cccc(F)c3)CC2)C1 (single isomer, unassigned) [Example 97]	10 nM	
Cc1noc(C2CCN(C(C)C[C@H](NC(=O)C3CCC(F)(F)CC3)c3ccccc3)CC2)n1 (single isomer, unassigned) [Example 110]	353 nM	
